Experimental data: ChEMBL document CHEMBL2434833, “Optimization of benzodiazepinones as selective inhibitors of the X-linked inhibitor of apoptosis protein (XIAP) second baculovirus IAP repeat (BIR2) domain” (J Med Chem, 2013)

Key:
[1] = Cmax in C57 mouse at 10 mg/kg, po; type: ADME, organism-based; design: dose 10 mg/kg, route oral; details: in vivo
[2] = Oral bioavailability in C57 mouse at 10 mg/kg; type: ADME, organism-based; details: in vivo
[3] = Tmax in C57 mouse at 10 mg/kg, po; type: ADME, organism-based; design: dose 10 mg/kg, route oral; details: in vivo
Liver microsomes = details: human, up to 10 µM
[4] = AUC in C57 mouse at 10 mg/kg, po; type: ADME, organism-based; design: dose 10 mg/kg, route oral; details: plasma
[5] = Plasma concentration in nude mouse xenografted with human LOX cells at 200 mg/kg, po measured at 8 hrs; type: ADME, organism-based; design: dose 200 mg/kg, route oral
[6] = Drug uptake in tumor of nude mouse xenografted with human LOX cells at 200 mg/kg, po measured at 8 hrs; type: ADME, organism-based, Neoplasm; design: dose 200 mg/kg, route oral; details: read-out: Drug uptake
[7] = Drug uptake in tumor of nude mouse xenografted with human LOX cells at 100 mg/kg, po measured at 8 hrs; type: ADME, organism-based, Neoplasm; design: dose 100 mg/kg, route oral; details: read-out: Drug uptake
[8] = Plasma concentration in nude mouse xenografted with human LOX cells at 100 mg/kg, po measured at 8 hrs; type: ADME, organism-based; design: dose 100 mg/kg, route oral

Row | Cmax [1] | bioavailability [2] | Tmax [3] | Stability (Liver microsomes) | AUC [4] | concentration at 8 h [5] | concentration at 8 h [6] | concentration at 8 h [7] | concentration at 8 h [8] | SMILES
1 | 873 ng/mL | 8% | 4 h | Stable | 5980 ng·h/mL | – | – | – | – | CN[C@@H](C)C(=O)N[C@@H]1C(=O)N(Cc2c(OC)ccc3ccccc23)c2ccc(C#N)cc2N(C(C)=O)[C@H]1C.Cl
2 | 823 ng/mL | 28% | 0.25 h | – | 7870 ng·h/mL | 5 µM | 7.7 µM | – | – | CN[C@@H](C)C(=O)N[C@@H]1C(=O)N(Cc2c(C)ccc3ccccc23)c2ccc(C#N)cc2N(C(C)=O)[C@H]1C.Cl
3 | – | – | – | – | – | – | – | 18.4 µM | 3.3 µM | CN[C@@H](C)C(=O)N[C@H](C(=O)N1CCC[C@H]1c1nc(C(=O)c2ccc(F)cc2)cs1)C1CCCCC1 [LCL-161]
